Structures are written as SMILES.

The experiment deals with Autotaxin (Homo sapiens, UniProt Q13822). Kind of experiment: Inhibition of C-terminal FLAG-tagged human recombinant autotaxin using synthetic substrate FS-3 at 10 uM measured every 2 mins by FRET assay relative to control.
For orientation: inhibition means the percentage by which the read-out fell short of the control. For `Cc1cccc(S(=O)(=O)N2CCn3nc(C4CCC(CNC(=O)CC(C)C)CC4)cc32)c1` (stereo not drawn), the inhibition turned out to be 20%. With `CC(CC(=O)NCCc1ccncc1)NC(=O)c1cc(-c2ccccc2)nc2ccccc12` (stereo not drawn) the figure was 20%; with `O=C(O)[C@@H](Cc1ccccc1)N1C(=O)/C(=C/c2cccc(Oc3ccc(Cl)cc3)c2)SC1=S`, 10%.

`O=C1/C(=C\c2ccc(OCc3cccc4ccccc34)cc2)SC(=S)N1c1cccc(F)c1`: the inhibition amounted to 10%. As to `Cc1cc(C)cc(CC(=O)N2CCN(c3ncccc3C(=O)NC(C(N)=O)C(C)O)CC2)c1` (stereo not drawn), the inhibition turned out to be 0%. As for `N#CC1=C(SCC(=O)Nc2ccc(Br)cc2)NC(=O)CC1c1ccc(O)cc1` (stereo not drawn), the inhibition came to 10%.

Turning to `COc1cccc(CNS(=O)(=O)c2ccc3c(c2)NC(=O)C(C)N3C(=O)CN2CCN(c3ccccn3)CC2)c1OC` (stereo not drawn), the inhibition is 10%.

`COc1cc(/C=C2/SC(=S)N(Cc3ccccc3)C2=O)ccc1OC(=O)c1cccs1`: the inhibition turned out to be 0%. Consider `COc1ccc(C2CC(=O)NC(SCC(=O)Nc3ccc(I)cc3)=C2C#N)cc1` (stereo not drawn), for which the inhibition is 20%. As to `COc1cc(C2OCC3(CCCC4(COC(c5ccc(O)c(OC)c5)OC4)C3=O)CO2)ccc1O` (stereo not drawn), the inhibition amounted to 30%. On to `NC(=O)C(Cc1ccc(O)cc1)NC(=O)c1ccc(N2CCN(C(=O)C(N)Cc3ccccc3)CC2)nc1` (stereo not drawn), for which the inhibition came to 10%.

For `CC(=O)CCC(=O)N1CCN(c2ccc(C(=O)NC(C(N)=O)C(C)O)cn2)CC1C` (stereo not drawn), the inhibition amounted to 10%. For `Cc1cc2cc(C#N)c(SCC(=O)Nc3ccc(N(C)C)cc3)nc2cc1C`, the inhibition is 0%. Regarding `CCCCOc1ccc(-c2nc3cc(C(=O)NCc4ccc(C(F)(F)F)cc4)ccc3n2CCc2ccc(OC)c(OC)c2)cc1`, the inhibition was found to be 30%. With `COc1cc(/C=N/NC(=O)c2cc(-c3ccc(OC)c(OC)c3)n[nH]2)ccc1O` the figure was 10%; with `O=C(N/N=C/c1cc(Br)c(O)c(O)c1Br)/C(=C\c1ccc([N+](=O)[O-])cc1)NC(=O)c1ccccc1`, 20%. Consider `CCOC(=O)C(=O)NCC1CCC(c2cc3n(n2)CCN3S(=O)(=O)c2cccc(Cl)c2)CC1` (stereo not drawn), for which the inhibition stood at 20%. With `CC(O)C(NC(=O)c1cccnc1N1CCN(C(=O)CCC(=O)c2ccccc2)CC1)C(N)=O` (stereo not drawn), the inhibition is 10%. With `CC1CCC(OCC(=O)N2CCN(c3ncccc3C(=O)N3CCCC3C(N)=O)CC2)C(C(C)C)C1` (stereo not drawn), the inhibition amounted to 20%. As for `O=C1/C(=C\c2cc(Cc3ccccc3)ccc2O)SC(=S)N1Cc1ccccc1`, the inhibition is 10%.

With `O=[N+]([O-])c1cc(/C=N/c2ccc3nc(SCc4ccc(Br)cc4)sc3c2)ccc1O`, the inhibition was 0%. With `O=C(NCC(O)CO)c1ccc2c(c1)nc(COCc1ccccc1)n2Cc1ccco1` (stereo not drawn), the inhibition was 30%. Take `COc1cc(CCNC(=O)c2ccc3c(c2)nc(-c2cccc(C)c2)n3CCc2ccc(OC)c(OC)c2)cc(OC)c1`: the inhibition was found to be 30%.

As for `COc1ccc(C2=NN(C(=O)CSc3nnc(CNC(=O)c4ccco4)n3-c3cc(C)ccc3C)C(c3ccc(OC)cc3)C2)cc1` (stereo not drawn), the inhibition was 30%. With `CC(C)C(=O)NC(Cc1ccc(OCc2ccccc2)cc1)C(=O)NCCCN(C)c1ccccc1` (stereo not drawn) the figure was 30%. For `COc1ccc(CCn2c(COc3ccccc3)nc3cc(C(=O)NCC(O)CO)ccc32)cc1OC` (stereo not drawn), the inhibition came to 10%. `COc1ccccc1/C=C1\SC(=O)N(CCC(=O)N2c3ccccc3Sc3ccc(Cl)cc32)C1=O`: the inhibition worked out at 30%.

As for `COc1cc(C2CC(=O)NC(SCC(=O)Nc3c(C)cc(C)cc3C)=C2C#N)ccc1OCc1ccccc1` (stereo not drawn), the inhibition is 30%.

Consider `COc1ccccc1C1CC(=O)NC(SCC(=O)Nc2ccc(Br)cc2)=C1C#N` (stereo not drawn), for which the inhibition was 30%. In the case of `COc1ccc(C2CC(=O)NC(SCC(=O)Nc3ccc(I)cc3)=C2C#N)cc1OC` (stereo not drawn), the inhibition is 20%. For the molecule `CCCCCCOc1ccc(/C=N/c2ccc(/N=C/c3ccc(OCCCCCC)cc3)c(Cl)c2)cc1`, the inhibition came to 0%. Regarding `N#CC1=C(SCC(=O)N(c2ccccc2)c2ccccc2)NC(=O)CC1c1cc(Br)c(O)c(Br)c1` (stereo not drawn), the inhibition is 10%. For `CC(=O)N1CCc2cc(NC(=O)c3ccc4nc(C)c(N(C)C(=O)CCc5ccccc5)n4c3)ccc21`, the inhibition is 20%. `COc1ccc(-c2cc(C(=O)NC(C)(C)C(=O)NCCCOC(C)C)c3ccccc3n2)cc1C`: the inhibition amounted to 20%. As for `COc1ccc(CNC(=O)c2cc(-c3ccc(OC)c(OC)c3)nc3ccc(CNC(=O)c4cccc(Cl)c4)cc23)c(OC)c1`, the figure is 20%; as for `O=C(NCC(O)CO)c1ccc2c(c1)nc(CN1CCC(N3CCCC3)CC1)n2CCc1ccccc1` (stereo not drawn), 30%. With `CC(C)c1ccc(S(=O)(=O)N2CCn3nc(C4CCC(CNC(=O)c5ccco5)CC4)cc32)cc1` (stereo not drawn), the inhibition was 20%. Take `CC1CCC(C(C)C)C(OCc2nc3cc(C(=O)NCCOCCO)ccc3n2Cc2ccco2)C1` (stereo not drawn): the inhibition worked out at 10%. On to `COc1cc(/C=c2/sc3n(c2=O)NC2(c4ccccc4)N(C)C(=O)N(C)C2(c2ccccc2)N=3)ccc1O` (stereo not drawn), for which the inhibition was found to be 20%. As for `Cc1ccc(NC(=O)CN2C(=O)N/C(=C/c3ccc(OCc4cccc([N+](=O)[O-])c4)cc3)C2=O)cc1`, the inhibition came out at 0%. In the case of `Cc1[nH]n(-c2cc(Cl)c(S(=O)(=O)O)cc2Cl)c(=O)c1/N=N/c1cc(Nc2nc(Cl)nc(Nc3cccc(S(=O)(=O)O)c3)n2)ccc1S(=O)(=O)O`, the inhibition came out at 10%.

Consider `CC(C)Cc1ccc(C(C)C(=O)N2CCN(c3ncccc3C(=O)NC(C(N)=O)C(C)O)CC2C)cc1` (stereo not drawn), for which the inhibition was 30%. As for `COc1cc(OC)cc(-c2nc3cc(C(=O)NCCc4ccccc4)ccc3n2CCc2ccc(OC)c(OC)c2)c1`, the figure is 30%. On to `COc1ccc(OC)c(C(=O)NC(CC(=O)NCCc2c[nH]c3ccccc23)c2ccccc2)c1` (stereo not drawn), for which the inhibition was found to be 20%.

As for `C#CCN1C(=O)S/C(=C/c2ccc(OCc3ccc4ccccc4c3)c(OCC)c2)C1=O`, the inhibition came to 0%. Take `O=C1/C(=C\c2cccc(OCc3ccccc3F)c2)SC(=S)N1Cc1ccccc1`: the inhibition was determined as 10%. Turning to `Cc1ccccc1C(=O)NCC1CCC(c2cc3n(n2)CCN3C(=O)COc2ccccc2)CC1` (stereo not drawn), the inhibition stood at 30%. As for `CC(=O)N1CCN(C(=O)c2ccc3nc(C)c(N(C)C(=O)CCc4ccccc4)n3c2)CC1`, the figure is 0%. With `CCn1c2ccccc2c2cc(/C=C3\SC(=S)N([C@H](Cc4ccccc4)C(=O)O)C3=O)ccc21`, the inhibition turned out to be 0%. As to `CCCCCOc1ccc(/N=C2\C=C(O)C(=O)c3ccccc32)cc1`, the inhibition was 20%. Consider `Cc1cc(C)cc(CC(=O)N2CCCN(c3ccc(C(=O)NC(C(N)=O)C(C)O)cn3)CC2)c1` (stereo not drawn), for which the inhibition is 10%.

For the molecule `CCc1ccc2c(c1)c1nnc(SCC(=O)NCc3ccc4c(c3)OCO4)nc1n2C`, the inhibition came out at 10%.

With `CCCCCCOC(=O)Oc1ccc(/C=N/c2ccc(OCC)cc2)cc1`, the inhibition was 0%. `COc1cc(CCNC(=O)c2ccc3c(c2)nc(-c2cc(OC)cc(OC)c2)n3CCc2ccc(OC)c(OC)c2)cc(OC)c1`: the inhibition was 30%. Turning to `COc1cc(CCNC(=O)c2ccc3c(c2)nc(-c2ccccc2)n3CCc2ccc(OC)c(OC)c2)cc(OC)c1`, the inhibition was 20%.

For the molecule `CCCCn1c(CN2CC(C)CC(C)C2)nc2cc(C(=O)NCC(O)CO)ccc21` (stereo not drawn), the inhibition amounted to 0%. Take `CS(=O)(=O)N1CCC(N(C(=O)COc2ccccc2)C2CCC2)CC1c1cccc(F)c1` (stereo not drawn): the inhibition was found to be 30%. With `COCCOCC(=O)N1CCN(c2ccc(C(=O)NC(C(N)=O)C(C)O)cn2)CC1C` (stereo not drawn), the inhibition turned out to be 20%. On to `COc1ccc(CNC(=O)C(C)(C)NC(=O)c2cc(-c3ccoc3)nc3ccccc23)c(OC)c1`, for which the inhibition came to 10%. As for `CCCCOc1ccc(-c2nc3cc(C(=O)NCc4cc(F)ccc4F)ccc3n2CCc2ccc(OC)c(OC)c2)cc1`, the figure is 30%; as for `COc1ccc(-c2cc(C(=O)NC(C)(C)C(=O)NCCN(C(C)C)C(C)C)c3ccccc3n2)cc1`, 0%; as for `CCN(C(=O)c1ccc(/C=C2\S/C(=N\c3ccccc3)N([C@H](C)C(=O)O)C2=O)cc1)c1ccccc1`, 20%. With `O=C(O)c1cc(-c2ccc(/C=C3/S/C(=N\Cc4ccccc4)N(Cc4ccccc4)C3=O)o2)ccc1Cl` the figure was 20%; with `COc1cccc(CCNC(=O)c2ccc3c(c2)nc(-c2cc(OC)c(OC)c(OC)c2)n3CCc2ccc(OC)c(OC)c2)c1`, 30%. In the case of `COc1ccc(-c2cc(C(=O)NC(C)(C)C(=O)NCCC3CCCN3C)c3ccccc3n2)cc1` (stereo not drawn), the inhibition was found to be 10%.

Turning to `CCc1cc2c(cc3c(=O)n(CCCC(=O)NCc4ccc(Cl)cc4)ncn32)s1`, the inhibition was found to be 30%.

In the case of `O=C(NCC(O)CO)c1ccc2c(c1)nc(CN1CCC(CCO)CC1)n2CCc1ccccc1` (stereo not drawn), the inhibition was 10%.

For the molecule `CCOC(=O)c1sc(NC(=O)c2ccc(Oc3ccc(C(=O)Nc4sc(C(=O)OCC)c(C)c4C(=O)OCC)cc3)cc2)c(C(=O)OCC)c1C`, the inhibition came out at 10%.

`CC(CNC(=O)c1cc(-c2ccccc2)nc2ccccc12)C(=O)NCCNc1ccccc1` (stereo not drawn): the inhibition turned out to be 10%. In the case of `CCCCCCOc1ccc(/C=N/c2ccc(C)cc2)cc1`, the inhibition worked out at 0%.

With `O=C1c2ccccc2-c2ccc(S(=O)(=O)Nc3ccc(S(=O)(=O)Nc4nccs4)cc3)cc21`, the inhibition was determined as 10%.

As to `COc1cc(CCNC(=O)c2ccc3c(c2)nc(-c2cc(OC)c(OC)c(OC)c2)n3CCc2ccc(OC)c(OC)c2)cc(OC)c1`, the inhibition is 30%.

In the case of `COc1ccc(-c2cc(C(=O)NC(C(=O)NCCCCCCO)C(C)C)c3ccccc3n2)cc1C` (stereo not drawn), the inhibition was found to be 10%. Turning to `COc1cccc(-c2ccc(C(=O)N(CCN)Cc3ccc(NC(C)=O)cc3)cn2)c1`, the inhibition was 20%. For the molecule `COC(=O)c1ccc(/C=C2/Sc3ccccc3N(Cc3ccccc3F)C2=O)cc1`, the inhibition came to 20%.

Take `CC(C)c1ccc(OCC(=O)N2CCC(CCCC3CCN(c4ccc(C(=O)N5CCCC5C(N)=O)cn4)CC3)CC2)cc1` (stereo not drawn): the inhibition turned out to be 0%.

For `COc1cccc(CNC2CC(=O)N(c3ccc(N4C(=O)CC(NCc5cccc(OC)c5OC)C4=O)cc3)C2=O)c1OC` (stereo not drawn), the inhibition was found to be 10%. Regarding `CCN(C(=O)c1cccc(/C=C2\SC(=S)N([C@H](Cc3ccccc3)C(=O)O)C2=O)c1)c1ccccc1`, the inhibition was determined as 30%.

For the origin of these results see ChEMBL document CHEMBL2417420, “Autotaxin inhibition: development and application of computational tools to identify site-selective lead compounds” (Bioorg Med Chem, 2013).
